# Results reported in patent US11419881B2, “Treatment of migraine” (priority 2019, dated 2022).
# Assays:
# progestin receptors = molecular target: T1, progestin receptors (Homo sapiens, UniProt P06401); assay: In vitro agonist/antagonist activity on progestin receptors; assay type: biochemical
# T1 sequence (P06401 1-933): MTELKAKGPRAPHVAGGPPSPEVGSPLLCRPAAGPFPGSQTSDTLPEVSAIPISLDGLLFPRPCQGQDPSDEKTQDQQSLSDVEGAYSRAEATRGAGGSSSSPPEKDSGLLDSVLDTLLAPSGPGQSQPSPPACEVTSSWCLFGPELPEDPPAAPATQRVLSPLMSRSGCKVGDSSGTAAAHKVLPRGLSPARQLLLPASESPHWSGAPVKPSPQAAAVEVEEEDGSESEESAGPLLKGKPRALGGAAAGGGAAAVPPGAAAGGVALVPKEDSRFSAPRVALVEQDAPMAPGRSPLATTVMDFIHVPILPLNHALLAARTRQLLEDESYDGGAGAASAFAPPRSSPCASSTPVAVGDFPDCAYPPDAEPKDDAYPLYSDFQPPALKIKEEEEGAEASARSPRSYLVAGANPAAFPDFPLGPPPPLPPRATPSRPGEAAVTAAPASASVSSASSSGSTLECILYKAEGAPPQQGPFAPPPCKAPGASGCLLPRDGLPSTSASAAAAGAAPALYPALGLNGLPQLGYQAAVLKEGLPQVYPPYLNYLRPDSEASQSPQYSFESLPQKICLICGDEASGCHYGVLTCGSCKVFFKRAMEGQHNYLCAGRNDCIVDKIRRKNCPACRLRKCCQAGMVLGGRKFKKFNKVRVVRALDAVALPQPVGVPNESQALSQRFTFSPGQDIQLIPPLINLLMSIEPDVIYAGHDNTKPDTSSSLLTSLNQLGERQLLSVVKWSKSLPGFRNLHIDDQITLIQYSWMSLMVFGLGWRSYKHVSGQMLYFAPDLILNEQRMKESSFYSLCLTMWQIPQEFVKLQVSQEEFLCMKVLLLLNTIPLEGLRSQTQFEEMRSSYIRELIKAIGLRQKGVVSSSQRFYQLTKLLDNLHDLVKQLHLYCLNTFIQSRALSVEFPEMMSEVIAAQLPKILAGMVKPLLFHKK
# glucocorticoid receptors = molecular target: T2, glucocorticoid receptors (Homo sapiens, UniProt P04150); assay: In vitro agonist/antagonist activity on glucocorticoid receptors; assay type: biochemical
# T2 sequence (P04150 1-777): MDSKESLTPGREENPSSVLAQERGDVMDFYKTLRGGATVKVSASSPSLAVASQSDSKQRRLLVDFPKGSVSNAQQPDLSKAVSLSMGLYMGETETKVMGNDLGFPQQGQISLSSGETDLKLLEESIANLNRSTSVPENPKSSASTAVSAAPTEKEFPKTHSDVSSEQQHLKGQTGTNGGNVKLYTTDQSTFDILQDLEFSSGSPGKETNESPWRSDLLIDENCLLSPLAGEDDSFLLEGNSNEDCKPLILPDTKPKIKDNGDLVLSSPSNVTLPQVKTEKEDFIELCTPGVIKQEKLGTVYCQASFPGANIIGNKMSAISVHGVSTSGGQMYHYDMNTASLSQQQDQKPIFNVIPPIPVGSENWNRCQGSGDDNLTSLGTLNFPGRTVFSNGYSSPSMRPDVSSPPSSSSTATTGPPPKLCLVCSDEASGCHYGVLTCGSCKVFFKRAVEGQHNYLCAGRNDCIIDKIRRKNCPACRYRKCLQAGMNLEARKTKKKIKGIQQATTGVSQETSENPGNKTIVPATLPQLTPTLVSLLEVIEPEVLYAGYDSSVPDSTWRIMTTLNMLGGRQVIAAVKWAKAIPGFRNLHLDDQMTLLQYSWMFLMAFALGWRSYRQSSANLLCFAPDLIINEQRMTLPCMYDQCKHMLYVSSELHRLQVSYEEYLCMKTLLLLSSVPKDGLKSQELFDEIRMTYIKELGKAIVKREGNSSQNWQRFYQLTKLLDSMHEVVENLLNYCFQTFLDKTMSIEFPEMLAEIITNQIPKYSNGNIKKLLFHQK
# [1] = Ames reverse mutation assay
# [2] = In vivo bone marrow micronucleus test
# [3] = Reproductive toxicity studies in pregnant rabbits; assay type: in vivo; conditions: intravenous up to 2.5 mg/kg/day during organogenesis
# [4] = Preclinical pharmacokinetic studies, intravenous doses; assay type: in vivo, rats, rabbits, or dogs; conditions: single repeated intravenous doses up to 2.5 mg/kg
# [5] = Reflex (autonomic) activity after nasal administration in human volunteers; assay type: in vivo; conditions: nasal 1.6 μg
# Procedure: The half effective dose of this effect was 0.087 μg.
# [6] = Nasal spray 1.6 μg in women of reproductive age, core body temperature and sympathoadrenergic tone; assay type: in vivo, human
# Procedure: It also changed the tone of the sympathoadrenergic system (as assessed by measuring physiologic sinus arrhythmia) within 5 minutes of administration, and the effect persisted for 15 to 20 minutes.
# [7] = Exploratory single-blind study in chronic migraine subjects (HAM-A, HAM-D, VRS, resting state fMRI)
# [8] = migraine subjects, 6.4 μg nasal, relative to placebo
structure (smiles),measurement,setting,value
"C[C@]12CC[C@H]3[C@@H](CCC4=CC(=O)CC[C@@]43O)[C@@H]1C[C@H]1O[C@H]12 [16α,17α-epoxy-10β-hydroxyestr-4-en-3-one]",agonist or antagonist activity on progestin receptors,progestin receptors,no agonist or antagonist activity
same,agonist or antagonist activity on glucocorticoid receptors,glucocorticoid receptors,no agonist or antagonist activity
same,mutagenic or clastogenic potential,[1],no evidence of mutagenic or clastogenic potential
same,mutagenic or clastogenic potential,[2],no evidence of mutagenic or clastogenic potential
same,effects on maternal or litter parameters,[3],no adverse effects on maternal or litter parameters
same,"plasma concentrations, dose dependence",[4],dose-proportional
same,"plasma concentrations, time course",[4],decreased rapidly
same,body core temperature (external ear canal),[5],decreased body core temperature
same,cardiac rate,[5],no significant change
same,depth of the inspiratory cycle of respiration,[5],significantly increased amplitude
same,latency of modulation of reflex activity after the electrogram,[5],5 to 10 s
same,"skeletal muscle tone (electromyogram, chin muscles)",[5],decreased skeletal muscle tone
same,skin conductance (electrodermal activity),[5]; palmar surface of fourth and fifth finger,increased amplitude of the skin conductance
same,respiration rate,[5]; within physiologic range,decreased respiration rate
same,decrease in core body temperature,[6],1±0.23 °C
same,latency of decrease in core body temperature,[6],0.5 to 4 min
same,persistence of change of sympathoadrenergic tone,[6],15 to 20 min
same,persistence of decrease in core body temperature,[6],9 ± 2.5 min
same,time to change of sympathoadrenergic tone (physiologic sinus arrhythmia),[6],≤ 5 minutes
same,functional connectivity of the amygdala with the anterior occipital lobe and right middle occipital lobe (fMRI),[7]; [8],increased functional connectivity
same,"functional connectivity of the hypothalamus with the anterior orbital gyrus, right medial orbital gyrus and pons (fMRI)",[7]; [8],decreased functional connectivity
same,"functional connectivity of the right thalamus with left orbitofrontal cortex, superior parietal lobe, left insular cortex and left primary motor cortex (fMRI)",[7]; [8],decreased functional connectivity
same,functional connectivity of the right thalamus with the left somatosensory cortex (fMRI),[7]; [8],increased functional connectivity
same,tolerability,"[7]; single nasal 6.4 μg, all three subjects",tolerated
same,"mean decrease in headache pain intensity score (VRS, 6-point) relative to placebo","[7]; two migraine subjects, single nasal 6.4 μg, 15 minutes, p<0.01",2.5
same,anxiety scores (HAM-A),"[7]; two migraine subjects, single nasal 6.4 μg, p<0.01",significantly improved
same,depression scores (HAM-D),"[7]; two migraine subjects, single nasal 6.4 μg, not statistically significant",improvement trend
